Tests used:
[1] = Preliminary toxicity studies (NCI/DTP) in mice; format: in vivo; settings: as high as 200 mg/Kg, 5-day period, B6D2FI mice
Excerpt: Similarly, p21 may also act in an anti-apoptotic fashion by inducing cell-cycle arrest or by inhibiting pro-apoptotic molecules such as procaspase-3 and apoptosis signal-regulating kinasel (ASK1). […] The fact that ARC represses both survivin and p21 makes a strong case for consideration of ARC as a potential anti-tumor agent. This is further supported by the observation that ARC was >10-fold more efficient in inducing apoptosis than the other nucleoside analog DRB (FIG. 5F). This is especially intriguing because, as shown herein, ARC and DRB repress global transcription to similar extent (FIG. 2A). […] Preliminary toxicity studies from NCI/DTP indicate that concentrations as high as 200 mg/Kg were non-toxic to B6D2FI mice during a 5-day period.

p53 = test: Gel shift assay with purified p53 phosphorylated by P-TEFb; format: binding; settings: purified p53, different concentrations
Method: Either purified p53 protein or nuclear extracts were used in the gel shift assays. For preparation of nuclear extracts, cells treated either with DMSO or different agents (doxorubicin, ARC and actinomycin D) were harvested 24 hours later and lysed in hypotonic buffer (10 mM HEPES pH 7.9, 1.5 mM MgCl2, 10 mM KCl, 0.2 mM PMSF, 0.5 mM DTT, 1 mM Na3VO4, 1 mM NaF, 1 mM Aprotinin and 1 mM Leupeptin), nuclei pelleted and treated with high-salt buffer (20 mM HEPES pH 7.9, 20% (v/v) glycerol, 1.5 mM MgCl2, 0.5 M KCl, 0.2 mM EDTA, 0.2 mM PMSF, 0.5 mM DTT, 1 mM Na3VO4, 1 mM NaF, 1 mM Aprotinin and 1 mM Leupeptin). Nuclear extracts (10 μg) or purified p53 protein (100 ng) were incubated with 0.5 ng of p53 consensus double-stranded oligos (5′-TACAGAACATGTCTAAGCATGCTGGGGACT-3′; Santa Cruz Biotechnology) that were labeled with [γ^32P]ATP. As a control, anti-p53 antibody (PAb421, EMD Biosciences) was used to supershift the p53/DNA complex. The reaction mixtures were resolved on a 4% acrylamide DNA-retardation gel, dried and exposed to X-ray film in the presence of intensifying screen.
(§1) In order to evaluate this activity, an in vitro kinase assay was performed with purified p53 protein and P-TEFb in the presence of different concentrations of ARC.

P-TEFb (Cdk9/Cyclin T1) = biological target: T1, P-TEFb (Cdk9/Cyclin T1) (Homo sapiens, UniProt P50750); test: P-TEFb kinase assay with p53 as substrate; format: biochemical; settings: different concentrations, 30° C., 30 min
T1 construct: gift from Dr. Nekhai (Howard University)
Method: For P-TEFb kinase assays with p53 as a substrate, purified p53 protein (Protein One) was used. Twenty-five nanograms of p53 protein along with [γ^32P]ATP was used in reactions either in the presence or absence of P-TEFb, with or without the addition of ARC. The reaction was carried out at 30° C. for 30 min. The samples were resolved on an SDS-PAGE and transferred on to a PVDF membrane and exposed to X-ray film to detect phosphorylation of p53.
as §1

HUVECs [2] = test: Motility assay with VEGF as chemoattractant; format: cell-based; settings: Homo sapiens, HUVEC; 24 hours pretreatment, average from two trials; read-out: IC50, cell motility
Method: (§2) Different angiogenesis assays such as cord formation assay, motility assay and proliferation inhibition assay were performed at the developmental therapeutics program (DTP) branch of NCI (NCI/DTP) as described. HUVECs were used for all the assays. Taxol and TNP-470 were used as positive control for the assays.
For motility assay, HUVECs were pretreated for 24 hours with different concentrations ARC and used in the assay with vascular endothelial growth factor (VEGF) as a chemoattractant.

HUVECs [3] = test: Cord formation assay; format: cell-based; settings: Homo sapiens, HUVEC, 24 hours, averages from three trials
Method: as §2
For cord formation assay, HUVECs were plated on a three dimensional layer of Matrigel, where the cells formed cord-like structures. Later, the cells were treated with vehicle (DMSO) or different concentrations of ARC for 24 hours, after which cord formation was quantitated as a function of cord junctions and cord length.

[4] = tested on: SV40-transformed MRC-5 human fetal lung fibroblasts; test: Apoptosis assays in SV40-transformed MRC-5 fibroblasts; format: cell-based; settings: 24 hours
Method: Immunoblotting was performed as described with antibodies specific for p53 (sc-126 HRP; Santa Cruz), hdm2 (sc-965; Santa Cruz), p21 (556431; BD Pharmingen), Sp1 (sc-59; Santa Cruz), survivin (sc-10811; Santa Cruz), phospho RNA polymerase II (4735; Cell Signaling), total RNA polymerase II (8WG16; a gift from Dr. Schlegel, University of Illinois at Chicago), α-tubulin (T9026; Sigma), cleaved caspase-3 (9664; Cell Signaling), caspase-9 (9502; Cell Signaling) and β-actin (A5441; Sigma) antibodies.
Apoptosis was detected either by DAPI (4′,6-diamidino-2-phenylindole) staining or by Flow Cytometry after PI (Propidium Iodide) staining. For DAPI staining, all treatments (DMSO or ARC) were done in triplicates in 6-well plates and cells were stained with DAPI and visualized by fluorescent microscopy. Four random fields for each sample were photographed and at least 500 cells per field were counted to estimate apoptosis. The data is represented as mean±Standard deviation (sd).
The ability of ARC to induce apoptosis in wild type and SV40-transformed MRC-5 human fetal lung fibroblasts was evaluated. Twenty-four hours after treatment with ARC, transformed fibroblasts underwent robust apoptosis (around 50% and 70%, respectively, with 5 and 10 μM of ARC) (FIGS. 4A and B). […] The transformed cell types may be more dependent on the survivin levels for their survival than their wild type counterparts and thus the reduction in these levels could be lethal to these cells.

Akt = Akt Ser473 phosphorylation immunoblot in mAkt-overexpressing cells; format: cell-based; settings: Rat1a-mAkt and MCF7-mAkt cells, 24 hours
Method: FIG. 9. ARC interferes with the Akt pathway by inhibiting phosphorylation of Akt. Rat1a and MCF-7 cells overexpressing myristoylated-Akt (mAkt) were treated with the indicated concentration of ARC for 24 hours, after which the cell lysates were used for immunoblotting with total and phospho-Ser473 specific Akt antibodies.
Another survival pathway that protects mitochondrial integrity is the Akt (AKT8 virus oncogene cellular homolog) pathway. In order to see if this pathway is affected, two different cell lines that overexpress myrisotylated-Akt (Rat1a-mAkt, and MCF7-mAkt) were used. Myristolated-Akt is a membrane-targeted Akt, a kinase involved in anti-apoptotic signaling.

T1 sequence (P50750 whole entry, species assumed): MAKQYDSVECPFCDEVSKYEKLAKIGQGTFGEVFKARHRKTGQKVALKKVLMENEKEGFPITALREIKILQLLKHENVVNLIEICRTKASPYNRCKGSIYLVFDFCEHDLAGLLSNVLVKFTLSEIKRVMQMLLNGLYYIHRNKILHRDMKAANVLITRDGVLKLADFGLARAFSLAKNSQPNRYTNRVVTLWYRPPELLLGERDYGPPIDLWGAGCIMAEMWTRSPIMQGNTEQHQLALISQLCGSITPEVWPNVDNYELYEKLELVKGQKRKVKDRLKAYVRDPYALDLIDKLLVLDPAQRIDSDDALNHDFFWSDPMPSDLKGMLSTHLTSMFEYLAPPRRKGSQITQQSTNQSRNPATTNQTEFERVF
T1 sequence (O60563 whole entry partner, species assumed): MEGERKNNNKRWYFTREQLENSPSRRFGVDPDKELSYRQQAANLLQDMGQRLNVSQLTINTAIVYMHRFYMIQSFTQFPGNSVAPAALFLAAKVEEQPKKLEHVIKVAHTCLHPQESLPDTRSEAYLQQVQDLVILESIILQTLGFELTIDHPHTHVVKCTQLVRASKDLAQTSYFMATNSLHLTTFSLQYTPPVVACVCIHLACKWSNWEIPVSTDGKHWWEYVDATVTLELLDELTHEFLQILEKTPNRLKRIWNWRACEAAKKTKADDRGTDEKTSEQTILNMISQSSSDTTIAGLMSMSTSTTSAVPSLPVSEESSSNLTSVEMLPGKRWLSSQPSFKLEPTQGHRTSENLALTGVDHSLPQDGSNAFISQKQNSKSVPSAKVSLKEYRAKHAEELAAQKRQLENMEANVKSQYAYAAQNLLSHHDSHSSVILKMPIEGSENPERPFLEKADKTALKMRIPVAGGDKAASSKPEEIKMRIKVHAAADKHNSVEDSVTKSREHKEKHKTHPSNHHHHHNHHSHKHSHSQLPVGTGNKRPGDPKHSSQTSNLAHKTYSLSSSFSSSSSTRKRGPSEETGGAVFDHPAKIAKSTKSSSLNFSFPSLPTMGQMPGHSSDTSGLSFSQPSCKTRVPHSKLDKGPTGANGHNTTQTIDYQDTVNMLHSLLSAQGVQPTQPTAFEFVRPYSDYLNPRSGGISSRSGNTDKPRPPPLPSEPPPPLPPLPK

Compound: NNc1c(C(N)=O)c2c(N)ncnc2n1[C@@H]1O[C@H](CO)[C@@H](O)[C@H]1O [ARC, 4-amino-6-hydrazino-7-beta-D-ribofuranosyl-7H-pyrrolo[2,3-d]-pyrimidine-5-carboxamide]
- toxicity [1]: non-toxic
- DNA binding of p53 phosphorylated by P-TEFb (p53): inhibited this process in a dose-dependent manner
- phosphorylation of p53 by P-TEFb (P-TEFb (Cdk9/Cyclin T1)): decreased in a dose-dependent manner
- IC50 (HUVECs [2]): ~830 nM
- IC50 (HUVECs [3]; read-out: IC50, cord junctions): ~345 nM
- IC50 (HUVECs [3]; read-out: IC50, cord length): ~382 nM
- apoptosis (DAPI staining) ([4]; 5 μM): around 50%
- apoptosis (DAPI staining) ([4]; 10 μM): ~70%
- cleaved caspase-3 [4]: appearance of cleaved caspase-3 was observed
- survivin levels ([4]; wild type and SV40-transformed MRC-5 fibroblasts): further reduced
- Ser473 phosphorylation on Akt (Akt): decrease in Ser473 phosphorylation on Akt
